A short description of series [1]: Cmax in male ICR mouse at 10 mg/kg, po measured after 24 hrs by LC-MS/MS analysis. The note with it: in vivo. Format: ADME, organism-based.
A further series relates to rhinovirus B14. The series is described as follows: Antiviral activity against Human rhinovirus B14 infected in human H1-HeLa cells incubated for 72 hrs. The note with it: Rhinovirus B. Format: functional, organism-based.
Series [2] has as its system SARS-CoV-2. The series is described as follows: Antiviral activity against SARS-CoV-2 infected in african green monkey Vero cells assessed as reduction in number of spike-protein expressing cells pre-infected for 30 mins followed by compound addition and measured 48 hrs post-infection by DAPI staining based immunofluorescence analysis. The class given is functional, organism-based. The note with it: Severe acute respiratory syndrome coronavirus 2, Vero.

Series [3] has as its system SARS-CoV-2. The series is described as follows: Antiviral activity against SARS-CoV-2 infected in hACE2 expressing female B6.Cg-Tg(K18-ACE2)2Prlmn/J mouse model assessed as reduction in body weight loss at 100 mg/kg, po preadministered twice daily for 4 days at 8 hrs interval with four hours before and after viral challenge and measured 9 days post viral challenge. Format: functional, organism-based. The note with it: Severe acute respiratory syndrome coronavirus 2, time 9.0 day.

A short description of series [4]: Cytotoxicity against HEK293T cells assessed as reduction in cell viability measured after 48 hrs by MTT assay. Format: toxicity, cell-based, HEK-293T. The note with it: human.
Series [5] in a line: MRTinfinity in male ICR mouse at 10 mg/kg, po measured after 24 hrs by LC-MS/MS analysis. The class given is ADME, organism-based. The note with it: in vivo.
Series [6] in a line: Cytotoxicity against golden hamster BHK-21 cells assessed as reduction in cell viability by MTT assay. The class given is toxicity, cell-based, Mesocricetus auratus. Background: Formazan colour is commonly taken as a measure of viable cells.
Series [7] can be described thus: Cytotoxicity against human H1-HeLa cells assessed as reduction in cell viability incubated for 72 hrs. Format: toxicity, cell-based.
Series [8] deals with SARS-CoV-2. The series is described as follows: Antiviral activity against SARS-CoV-2 Delta (hCoV-19/Korea/KDCA119861/2021) infected in human Calu-3 cells assessed as reduction in number of spike-protein expressing cells pre-infected for 30 mins followed by compound addition and measured 48 hrs post-infection by DAPI staining based immunofluorescence analysis relative to control. The class given is functional, organism-based. The note with it: Severe acute respiratory syndrome coronavirus 2, Delta (hCoV-19/Korea/KDCA119861/2021).

The nature of series [9]: Cytotoxicity against MDCK cells assessed as reduction in cell viability incubated for 3 days by MTT assay. The note with it: dog, time 3 day. Format: toxicity, cell-based, Canis lupus familiaris.
The nature of series [10]: Cytotoxicity against human Calu-3 cells assessed as reduction in cell viability incubated for 48 hrs by MTT assay. Format: toxicity, cell-based.
Series [11] has as its system Middle East respiratory syndrome-related coronavirus. The series is described as follows: Antiviral activity against MERS-CoV KOR/KNIH/002_05_2015 infected in human Huh-7 cells assessed as inhibition of virus-induced cytopathic effect measured 2 to 7 days post infection by MTT-based cell viability assay. Format: functional, organism-based. The note with it: KOR/KNIH/002_05_2015, Huh-7. For orientation: Cytopathic effects are the visible damage that an infection or toxin causes in cultured cells.

For series [12], the system named is SARS-CoV-2. The series is described as follows: Antiviral activity against SARS-CoV-2 infected in african green monkey Vero cells assessed as reduction in number of spike-protein expressing cells at 30 uM pre-infected for 30 mins followed by compound addition and measured 48 hrs post-infection by DAPI staining based immunofluorescence analysis relative to control. Format: functional, Severe acute respiratory syndrome coronavirus 2. Set-up: scale not given: the % may be the effect or the level left. The note with it: time 47.5 hrs.

In general, Cmax refers to the peak of the concentration-time curve. Usually EC50 stands for the midpoint of the concentration-response curve. One may read the CC50 as the concentration that lowers cell viability or growth by half. Broadly, the MRT inf is the average time that molecules of a dose stay in the body.

The source made the active and inactive calls. No cut-off for these calls is given here. Some results are limits rather than exact numbers.

In [1], `O=c1ccn([C@@H]2S[C@H](CO)[C@@H](O)[C@H]2O)c(=O)[nH]1` had a Cmax of 4980 ng/mL. The concentration giving a half-maximal response (EC50) in the series on rhinovirus B14 was 23.7 µM; in the series with SARS-CoV-2 [2] it was 1.71 µM; with SARS-CoV-2 [8], 7.6 µM; in series [11], 4.04 µM. For the same compound, in the series on SARS-CoV-2 [3], the result was Active. The CC50 at 48 h in [4] is 81.1 µM; in series [10] it was > 100 µM. The compound further had an MRT inf in [5] of 10.5 h. Also, the CC50 in series [6] came out at 93.7 µM. The CC50 at 72 h in series [7] and in series [9] was > 100 µM throughout. Moreover, the Activity in the series with SARS-CoV-2 [12] is >80%.

These data come from ChEMBL document CHEMBL6182943, “Identification of 4'-Thiouridine as an Orally Available Antiviral Agent Targeting Both RdRp and NiRAN Functions of SARS-CoV-2 Nsp12” (J Med Chem, 2025).
